According to US8017350B2, “Glimepiride- and insulin-induced glycosylphosphatidylinositol-specific phospholipase C regulation” (Sanofi-Aventis Deutschland GmbH, priority 2004, dated 2011):

Key:
[1] = test system: rat adipocyte GPI-PLC; assay: adipocyte GPI-PLC assay (plasma membranes or hc/lcDIGs, AChE substrate, TX-114 partitioning); assay type: biochemical; details: at the highest concentration tested, only
Protocol: (§1) GPI-PLD (rat serum) was assayed according to “Hari et al. (1997) Biochim. Biophys. Acta 1355: 293-302” by incubation with 10 μl of human placental aP solution (100 U/ml in 10 mM Hepes/NaOH, pH 7.0, 150 mM NaCl) in 100 μl of 200 mM Tris/maleate (pH 7.0) and 1% Nonidet P-40 for 10 min at 37° C. and subsequent termination of the reaction by addition of 0.4 ml of ice-cold stop buffer (10 mM Hepes/NaOH, pH 7.0, 150 mM NaCl, 0.1 mM MgCl2 and 0.01 mM zinc acetate). GPI-PLC (T. brucei) was assayed as described in “Mensa-Wilmot et al. (1995) Methods Enzymol. 250: 641-655” by incubation with 5 μl of human placental aP solution (see above) in 50 μl of 50 mM Tris/HCl (pH 8.0), 0.25% Nonidet P-40 and 5 mM EDTA for 30 min at 37° C. and subsequent termination of the reaction by addition of 0.45 ml of stop buffer. PI-PLC (B. cereus) and adipocyte GPI-PLC (5-25 μg plasma membranes or hc/lcDIGs) were assayed by incubation with 10 μl of bovine erythrocyte acetylcholinesterase (AChE) solution (12 U/ml in 10 mM Tris/HCl, pH 7.4, 144 mM NaCl, 0.1% TX-100) in 100 μl of 20 mM Hepes/KOH (pH 7.8), 144 mM NaCl, 0.1% TX-100, 0.2 mM MgCl2 for 1 h at 25° C. and subsequent termination by adding 5 μl of glacial acetic acid and then 0.4 ml of 10 mM Tris/HCl (pH 7.4), 144 mM NaCl. Each reaction mixture was subjected to TX-114 partitioning (see below).
(§2) Pelleted hc/lcDIGs (10-50 μg protein) or (G)PI-PLC reaction mixtures (0.5 ml) were separated into amphiphilic and hydrophilic proteins using partitioning between TX-114-enriched and depleted phases according to “Bordier, C., (1981) J. Biol, Chem. […]” by suspending in 1 ml of ice-cold TX-114 (1%), 25 mM Tris/HCl (pH 7.4), 144 mM NaCl or mixing with 0.5 ml of ice-cold TX-114 (2%), respectively. After incubation for 1 h on ice, the mixture was layered onto a cushion of 0.4 ml of 0.25 M sucrose and 25 mM Tris/HCl (pH 7.4) on ice. Phase separation was induced by warming up to 37° C. and subsequent centrifugation (10,000×g, 1 min). After re-extraction of the lower TX-114-enriched phase, aliquots of the pooled upper TX-114-depleted phase were measured for 5′-Nuc, aP and AChE activity or precipitated (15 polyethylene glycol 4000) for SDS-PAGE analysis.
Table 1: GPI-PLC of hcDIGs from rat adipocytes, GPI-PLC from T. brucei and PI-PLC from B. cereus were incubated with solubilized and partially purified bovine erythrocyte AChE or human placental aP in the absence or presence of increasing concentrations (0.05 μM-1 mM) of the inhibitors indicated under appropriate conditions (see Materials and Methods). Cleavage rate was calculated from the amount of hydrophilic AChE and aP activity recovered with the TX-114-depleted phase upon TX-114 partitioning. […]

[2] = target: T1, GPI-PLC (T. brucei) (Trypanosoma brucei brucei, UniProt P09194); assay: GPI-PLC (T. brucei) assay, human placental aP substrate, TX-114 partitioning; assay type: biochemical
T1 construct: purchased Oxford Glycosystems (Oxford, UK)
T1 sequence (P09194 whole entry): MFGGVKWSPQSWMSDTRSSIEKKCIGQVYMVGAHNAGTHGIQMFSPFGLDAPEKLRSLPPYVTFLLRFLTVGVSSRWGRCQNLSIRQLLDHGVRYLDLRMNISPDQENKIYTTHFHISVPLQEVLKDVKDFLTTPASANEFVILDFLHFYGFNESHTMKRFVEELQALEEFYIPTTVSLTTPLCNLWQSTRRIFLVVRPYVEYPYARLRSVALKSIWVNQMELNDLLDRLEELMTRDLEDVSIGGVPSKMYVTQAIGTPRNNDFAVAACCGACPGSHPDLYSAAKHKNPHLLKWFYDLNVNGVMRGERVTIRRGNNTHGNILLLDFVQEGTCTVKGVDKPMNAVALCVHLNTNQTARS
Protocol: as §1, §2
(§3) Table 1: GPI-PLC of hcDIGs from rat adipocytes, GPI-PLC from T. brucei and PI-PLC from B. cereus were incubated with solubilized and partially purified bovine erythrocyte AChE or human placental aP in the absence or presence of increasing concentrations (0.05 μM-1 mM) of the inhibitors indicated under appropriate conditions (see Materials and Methods). Cleavage rate was calculated from the amount of hydrophilic AChE and aP activity recovered with the TX-114-depleted phase upon TX-114 partitioning. Means+SD from at least 3 independent incubations with partitioning/enzyme assays in quadruplicate are given. n.a., not applicable.
(§4) Purified (G)PI-PLC/D from B. cereus, rat serum and T. brucei as well as total plasma membranes (PM) and hc/lcDIGs prepared from isolated rat adipocytes were incubated (10 min, 30° C.) with increasing concentrations of GPI-2350 and then assayed for amphiphilic-to-hydrophilic conversion of AChE and aP by TX-114 partitioning (see Materials and Methods). The lipolytic activity was calculated as % of the control reaction in the absence of GPI-2350 (set at 100%). Means+SD of at least 4 independent incubations with AChE and aP activity measurements in triplicate each are given.

[3] = target: T2, PI-PLC (B. cereus) (Bacillus cereus, UniProt P14262); assay: PI-PLC (B. cereus) assay, AChE substrate, TX-114 partitioning; assay type: biochemical; details: read-out: inhibition % at 1 mM
T2 construct: purchased SigmalAldrich (Deisenhofen, Germany)
T2 sequence (P14262 32-329 limits assumed): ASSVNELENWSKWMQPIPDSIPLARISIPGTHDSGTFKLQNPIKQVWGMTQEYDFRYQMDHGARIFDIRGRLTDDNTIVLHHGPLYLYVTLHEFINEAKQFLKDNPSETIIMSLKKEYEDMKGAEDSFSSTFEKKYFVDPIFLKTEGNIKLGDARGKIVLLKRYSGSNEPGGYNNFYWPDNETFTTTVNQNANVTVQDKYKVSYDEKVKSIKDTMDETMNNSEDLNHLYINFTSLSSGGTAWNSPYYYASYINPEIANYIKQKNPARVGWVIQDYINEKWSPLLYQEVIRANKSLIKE
Protocol: as §1, §2, §3, §4

[4] = test system: isolated rat adipocytes; assay: glucose transport assay (2-deoxy-D-[3H]glucose); assay type: cell-based
Protocol: (§5) Glucose transport was determined as described in “Müller, G. et al., (1994) J. Cell Biol. 126: 1267-1276” by incubation of 10,000-20,000 washed adipocytes with 2-deoxy-D[2,6-^3H]glucose at 50 μM final conc. (0.33 μCi/ml) in 50-μl portions for 20 min at 37° C. in the absence or presence of 20 μM cytochalasin B.
(§6) Table 3: Isolated rat adipocytes were incubated in the presence of methyl-β-cyclodextrin (m-β-CD, 10 mM, 50 min), CBDP (300 μM, electroporation, followed by washing and subsequent incubation for 30 min), PIG41 (10 μM, 15 min), sodium orthovanadate (1 mM, 15 min), trypsin (10 μg/ml, 15 min followed by treatment with 0.5 M NaCl and subsequent washing) and N-ethylmaleimide (1 mM, 5 min followed by addition of DTT). After addition of GPI-2350 (50 μM final conc.) to one half of the adipocyte suspension and further incubation (60 min, 37° C.), portions of the cells were assayed for 5′-Nuc activity in the isolated IcDIGs. The increase in 5′-Nuc during the basal incubation was set at 100 arb. units. Other portions of the cells (after 15 min incubation) were assayed for glucose transport which was set at 100 arb. units for the basal incubation. Means+SD of at least 3 independent cell incubations with activity measurements in triplicate each are given.
(§7) FIG. 8: Effect of GPI-2350 on the glimepiride/insulin-induced metabolic activity. Isolated rat adipocytes were treated (5 min, 37° C.) without or with GPI-2350 (Panel A, 50 μM; Panel B, increasing conc.; Panel C, 5 μM, 50 μM) and then incubated (15 min, 37° C.) in the absence or presence of insulin (Ins, 10 nM) or glimepiride (Gli, 20 μM or increasing conc.) as indicated. The adipocytes were then assayed for glucose transport and isoproterenol-induced lipolysis. The activity is given relative to the absence of GPI-2350 in the control reaction (Panels A, basal) or in the insulin- and glimepiride-stimulated state (Panels B and C, set at 100). Means+SD of at least 5 independent cell incubations with activity measurements in triplicate each are given.

[5] = test system: 5′-Nuc in isolated rat adipocytes; assay: 5′-Nuc translocation to lcDIGs induced by insulin-mimetic stimuli; assay type: cell-based
Protocol: as §6

[6] = test system: patients with type 2 diabetes; details: cited from earlier work
[7] = test system: glucose transport, rat adipocytes; assay: Glucose transport in rat adipocytes; assay type: cell-based; details: for Glucose Transport: basal set at 100; for glucose transport (in words): insulin-mimetic stimuli
Protocol: as §5
Subsequently, we studied whether the differential effects of GPI-PLC inhibition on IRS-1 tyrosine phosphorylation in response to insulin and glimepiride is reflected in their metabolic activity in insulin target cells. For this, isolated rat adipocytes were pretreated with GPI-2350 prior to challenge with either stimulus, and then assayed for glucose transport and isoproterenol-induced lipolysis (FIG. 8). […] These differential effects of GPI-PLC inhibition were confirmed by analysis of the effect of GPI-2350 on the inhibition of isoproterenol-induced lipolysis by glimepiride and insulin when measured as release of NBD-FA instead of glycerol from rat adipocytes prelabeled with this fluorescent fatty acid derivative (FIG. 9).
as §6, §7

[8] = test system: 5'-Nuc, rat adipocytes; assay: 5'-Nuc translocation to lcDIGs induced by insulin-mimetic stimuli; assay type: cell-based; details: for Increase in 5′-Nuc at lcDIGs: basal set at 100
Source text: Finally, the involvement was investigated of the GPI-PLC in signaling pathways of insulin-mimetic stimuli other than glimepiride, which are either dependent on or independent of the redistribution of GPI-proteins within DIGs. […] This is in agreement with their modes of action, the well-known inhibition of insulin receptor and IRS-1 dephosphorylation by the tyrosine phosphatase inhibitor, vanadate and the direct stimulation of pp59^Lyn and IRS-1 tyrosine phosphorylation by the CBDP.
as §6

[9] = +GPI-2350 (50 μM final conc., 15 min)
[10] = +GPI-2350 (50 μM final conc., 60 min)

## CCCCCCCCCCCCP(=O)(O)O[C@H]1[C@H](O)[C@@H](O)[C@H](O)[C@@H](O)[C@@H]1F [GPI-1793, 2-deoxy-2-fluoro-scyllo-inositol-1-O-dodecyl-phosphonic acid]
[1]
  effect on the adipocyte GPI-PLC: moderate

## CCCCCCCCCCCCP(=O)(OC)O[C@@H]1[C@H](O)[C@H](O)[C@@H](O)[C@H](O)[C@H]1O (stereo partly shown) [GPI-2349, myo-inositol-1-O-dodecylphosphonic acid methylester]
[1]
  effect on the adipocyte GPI-PLC: very moderate
[2]; IC50, Table 1, inhibitor 0.05 μM-1 mM
  IC50: 310 to 390 µM
[2]; read-out: inhibition % at 1 mM
  inhibition at 1000 µM: 66%
[3]
  inhibition at 1000 µM: 24%

## CCN1C(=O)C=CC1=O [N-ethylmaleimide]
[4]; [9]
  Glucose Transport (basal set at 100 arb. units): 288 + 40 arb. units
[4]; −GPI-2350
  Glucose Transport (basal set at 100 arb. units): 308 + 33 arb. units
[5]; [10]
  Increase in 5′-Nuc at lcDIGs (basal set at 100 arb. units): 319 + 52 arb. units
[5]; −GPI-2350
  Increase in 5′-Nuc at lcDIGs (basal set at 100 arb. units): 292 + 60 arb. units

## CCC1=C(C)CN(C(=O)NCCc2ccc(S(=O)(=O)NC(=O)N[C@H]3CC[C@H](C)CC3)cc2)C1=O [glimepiride]
[6]; 14-week study
  effects vs. gliclazide: no differences between their effects
[6]; first few weeks of treatment
  rate of blood glucose reduction vs. glipizide: more rapidly than glipizide
[6]; human, in vivo
  effects on cardiovascular variables: fewer and less severe effects on cardiovascular variables than glibenclamide
  pharmacokinetics in elderly, renal or liver disease: mainly unaltered
[6]; secondary sulphonylurea failure, fasting glucose target ≦7.8 mmol/L
  efficacy of glimepiride plus insulin: as effective as insulin plus placebo

## [Na+].[Na+].[Na+].[O]=[V]([O-])([O-])[O-] [sodium orthovanadate]
[4]; [9]
  Glucose Transport (basal set at 100 arb. units): 673 + 45 arb. units
[4]; −GPI-2350
  Glucose Transport (basal set at 100 arb. units): 707 + 51 arb. units
[5]; [10]
  Increase in 5′-Nuc at lcDIGs (basal set at 100 arb. units): 105 + 34 arb. units
[5]; −GPI-2350
  Increase in 5′-Nuc at lcDIGs (basal set at 100 arb. units): 93 + 38 arb. units
[7]; +GPI-2350 (50 μM)
  Glucose Transport: 673 + 45 arb. units
[7]
  glucose transport (in words): stimulated glucose transport
[7]; −GPI-2350
  Glucose Transport: 707 + 51 arb. units
[8]
  5'-Nuc at lcDIGs (in words): without concomitant induction of 5′-Nuc translocation to IcDIGs
[8]; +GPI-2350 (50 μM)
  Increase in 5′-Nuc at lcDIGs: 105 + 34 arb. units
[8]; −GPI-2350
  Increase in 5′-Nuc at lcDIGs: 93 + 38 arb. units

## methyl-β-cyclodextrin [m-β-CD] [listing 1 of 2 here]
[4]; [9]
  Glucose Transport (basal set at 100 arb. units): 249 + 18 arb. units
[4]; −GPI-2350
  Glucose Transport (basal set at 100 arb. units): 289 + 13 arb. units
[5]; [10]
  Increase in 5′-Nuc at lcDIGs (basal set at 100 arb. units): 539 + 104 arb. units
[5]; −GPI-2350
  Increase in 5′-Nuc at lcDIGs (basal set at 100 arb. units): 595 + 128 arb. units

## methyl-β-cyclodextrin [m-β-CD] [listing 2 of 2 here]
[7]; +GPI-2350 (50 μM)
  Glucose Transport: 249 + 18 arb. units
[7]
  glucose transport (in words): glucose transport activation
[7]; −GPI-2350
  Glucose Transport: 289 + 13 arb. units
[8]
  5'-Nuc at lcDIGs (in words): pronounced increases
[8]; +GPI-2350 (50 μM)
  Increase in 5′-Nuc at lcDIGs: 539 + 104 arb. units
[8]; −GPI-2350
  Increase in 5′-Nuc at lcDIGs: 595 + 128 arb. units
